Measured values published in paper PMC6208908, “Field template-based design and biological evaluation of new sphingosine kinase 1 inhibitors” (Breast Cancer Research and Treatment, 2018).
Entries after “also recorded” stand apart in the source; their conditions may differ.

Key:
recombinant SK1 = recombinant SK1 (Homo sapiens, UniProt Q9NYA1); assay: SK1 activity assay, cell-free (recombinant SK1 extract, radiolabelling); type: biochemical
Experimental: SK assay was performed using radiolabeling as previously described, in conditions favouring SK1 or SK2 activity as required.
The synthesised compounds were then screened for SK1 inhibition. Compounds SK-A to SK-F and SKI-II (commercial inhibitor of SK used as positive control with reported IC50 0.5 µM [14]) at 1 µM were incubated in the presence of recombinant SK1 extract (in excess), 1 µM of ATP, and exogenous 1 µM sphingosine for 1 h followed by measurement of SK1 activity.
Fig. 2 Inhibition of sphingosine kinase 1 in cell-free extract and in vitro. a 1 µM of compounds SK-A to SK-F and SKI-II (commercial inhibitor of SK used as a positive control) were incubated in the presence of recombinant SK1 extract (in excess), 1 µM of ATP, and 1 µM exogenous sphingosine for 1 h. b MDA-MB-231 cells were incubated with 1 µM of compounds SK-A to SK-F and SKI-II for 6 h. SK1 activity was measured as described in materials and methods. Columns, means of three independent experiments normalised to vehicle; bars, SEM. (ns, non-significant; *p < 0.05; **p < 0.01)
SK1 activity was determined in the presence of triton X-100 and SK2 activity was measured in the presence of high salt concentrations, conditions that favour SK1 and SK2, respectively. […] Km for SK1 was 6.97 ± 1.20 µM, Vmax 98 ± 4 µM/min/mg protein and Ki for SK-F 0.46 ± 0.1 µM. […] Some SK inhibitors such as SKI-II were previously shown to induce proteasomal degradation of SK1 [48, 49].

SK1 mRNA = SK1 mRNA expression by qRT-PCR in MDA-MB-231 cells; type: cell-based, human; conditions: 1, 2, 5 and 10 µM, 24 h
Experimental: Isolation of total RNA from MDA-MB-231 cells was performed using the RNeasy Mini kit (Qiagen, Valencia, CA, USA) as per manufacturer’s instructions. RNA quantity and purity were measured using a NanoDrop ND-1000 Spectrophotometer (Thermo Fisher Scientific, Loughborough, UK). Reverse transcription was performed using precision nanoScript™ reverse transcription kit (PrimerDesign Ltd, Southampton, UK). qRT-PCR was done as already described. Ct values were exported and analysed using qbase software (Biogazelle NV, Zwijnaarde, Belgium).
Fig. 3 Effect of compounds SK-A to SK-F on SK1 mRNA levels. MDA-MB-231 cells were incubated with 1, 2, 5 and 10 µM of compounds SK-A to SK-F for 24 h. SK1 mRNA expression was measured by qRT-PCR. Columns, means of three independent experiments normalised to control; bars, SEM. (*p < 0.05; **p < 0.01)

SK1 protein = SK1 protein level (Figure S9); type: cell-based
MDA-MB-231 cells = assay: MTT cell viability / proliferation assay; type: cell-based, human; conditions: for IC50: Homo sapiens
Experimental: Cellular viability was measured using the 3-(4,5-dimethylthiazol-2-yl)-2,5-diphenyltetrazolium bromide (MTT; 5 mg/ml) colorimetric assay as already described.
Fig. 4 Effect of compounds SK-A to SK-F on breast cancer cell viability. MDA-MB-231 cells were incubated with 1, 2, 5 and 10 µM of compounds SK-A to SK-F for up to 120 h. Cell proliferation was measured using MTT assay. Columns, means of three independent experiments normalised to control; bars, SEM. (*p < 0.05; **p < 0.01; ^§p < 0.001). IC50 levels for SK-F for 72, 96 and 120 h were 7, 4.5 and 3 µM, respectively

[1] = system: 4T1 breast cancer allografts; assay: 4T1 breast cancer allograft, tumour volume; type: in vivo, BALB/c nude mice; conditions: 5 mg/kg each drug i.p. twice a week for 2 weeks; control 468 mm^3
Experimental: Breast cancer allografts were established in 6–8-week-old BALB/c nude mice by injection of 10^6 4T1 cells into their mammary pad. Two weeks after implantation, mice were randomised into treatment groups (n = 6/group) and treated twice a week for 2 weeks with intraperitoneal injections of dimethyl sulfoxide (DMSO), 5 mg/kg DTX, 5 mg/kg SK-F, 5 mg/kg DTX + 5 mg/kg SK-F. One day after the last treatment, all mice were euthanized and blood was collected. Tumour long and short radii were measured using calipers and tumour volume (v) was calculated using the formula v = 4/3 πab^2 (a – long radius, b – short radius). Mice and individual organs were weighed and primary tumours were then processed for analysis of SK1 activity as described above. Full blood count and liver function test analysis was done in the Hammersmith hospital biochemical lab. […]
Fig. 5 Effect of compound SK-F on breast tumour growth and SK1 activity. […] Two weeks after implantation, mice were randomised into treatment groups (n = 6/group) and treated twice a week for 2 weeks with intraperitoneal injections of: DMSO, 5 mg/kg DTX, 5 mg/kg SK-F, 5 mg/kg DTX + 5 mg/kg SK-F. a Tumour volume in the different treatment groups of 4T1 breast cancer implanted in mouse mammary fat pad. b SK1 activity in tumours was measured using radiolabelling. […]

SK1 in 4T1 cells = biological target: T1, SK1 in 4T1 cells (Mus musculus, UniProt Q8CI15); assay: SK1 activity in 4T1 cells in vitro (Figure S10); type: cell-based, murine
T1 construct: endogenous in cells; host or cells: 4T1
T1 sequence (Q8CI15 whole entry): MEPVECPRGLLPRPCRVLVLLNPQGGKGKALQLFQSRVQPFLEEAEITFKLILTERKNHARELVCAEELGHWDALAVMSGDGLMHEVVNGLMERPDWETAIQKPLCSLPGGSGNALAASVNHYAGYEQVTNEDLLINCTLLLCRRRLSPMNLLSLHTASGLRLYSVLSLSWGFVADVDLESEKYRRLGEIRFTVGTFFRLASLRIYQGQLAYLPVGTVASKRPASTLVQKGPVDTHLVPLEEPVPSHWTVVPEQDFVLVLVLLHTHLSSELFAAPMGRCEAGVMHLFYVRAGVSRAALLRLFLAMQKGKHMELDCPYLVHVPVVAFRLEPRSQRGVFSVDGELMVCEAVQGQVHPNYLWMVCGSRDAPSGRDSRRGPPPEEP

Sequence of recombinant SK1 (Q9NYA1 whole entry): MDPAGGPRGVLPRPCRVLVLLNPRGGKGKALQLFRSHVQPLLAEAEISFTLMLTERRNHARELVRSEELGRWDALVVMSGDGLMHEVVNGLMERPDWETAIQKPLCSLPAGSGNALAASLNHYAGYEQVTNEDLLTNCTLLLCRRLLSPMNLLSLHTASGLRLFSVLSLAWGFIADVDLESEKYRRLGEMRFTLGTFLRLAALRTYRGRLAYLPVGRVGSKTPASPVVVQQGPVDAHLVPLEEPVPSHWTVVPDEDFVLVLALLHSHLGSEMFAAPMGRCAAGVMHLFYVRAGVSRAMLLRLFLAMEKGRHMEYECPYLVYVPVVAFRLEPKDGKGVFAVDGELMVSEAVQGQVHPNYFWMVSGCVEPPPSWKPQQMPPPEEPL

## CCCCCCCCc1ccc(NC(=O)c2ccccc2)cc1 [SK-F]
Recombinant SK1; 1 µM compound, recombinant SK1 extract in excess, 1 µM ATP, 1 µM sphingosine, 1 h
  inhibition of SK1 activity in cell-free settings: most potent inhibitor of SK1 activity; also recorded: statistically significant inhibition
Recombinant SK1; Figure S7, read-out: IC50 for purified enzyme (SK1 activity dose response)
  IC50: 920 nM
Recombinant SK1; Lineweaver-Burk plot, increasing sphingosine (Figure S8A)
  mode of SK1 inhibition: competitive inhibitor
Recombinant SK1; recombinant SK1, increasing sphingosine, triton X-100, Lineweaver-Burk
  Ki: 460 ± 100 nM
SK1 mRNA
  effect on SK1 mRNA expression: did not elicit any changes
SK1 protein
  effect on SK1 protein: did not induce any change
MDA-MB-231 cells; 1, 2, 5 and 10 µM, up to 120 h
  effect on MDA-MB-231 cancer cell proliferation: highest effect
MDA-MB-231 cells; MDA-MB-231, 72 h
  IC50: 7000 nM
MDA-MB-231 cells; MDA-MB-231, 96 h
  IC50: 4500 nM
MDA-MB-231 cells; MDA-MB-231, 120 h
  IC50: 3000 nM
[1]
  tumour volume at the end of the study: 371 mm^3
SK1 in 4T1 cells
  SK1 activity in 4T1 cells: significant inhibition
